Laboratory results: patent US10213415B2, “Compounds as opioid receptor modulators” (JANSSEN PHARMACEUTICA NV, priority 2004, dated 2019)
Read-outs that look alike come from different tables or passages of the source.

Assays:
[1] = target: T1, delta opioid receptor (CHO-hδ cell membranes) (Homo sapiens, UniProt P41143); test: Delta Opioid Receptor Functional Assay: [35S]GTPγS Binding in CHO-hδ Cell Membranes, Version 1; type: biochemical; settings: read-out: DOR GTP-binding Assay_v1 EC50
T1 construct: purchased Receptor Biology, Inc. (Baltimore, Md.); host or cells: CHO cells (recombinant expression)
T1 sequence (P41143 whole entry): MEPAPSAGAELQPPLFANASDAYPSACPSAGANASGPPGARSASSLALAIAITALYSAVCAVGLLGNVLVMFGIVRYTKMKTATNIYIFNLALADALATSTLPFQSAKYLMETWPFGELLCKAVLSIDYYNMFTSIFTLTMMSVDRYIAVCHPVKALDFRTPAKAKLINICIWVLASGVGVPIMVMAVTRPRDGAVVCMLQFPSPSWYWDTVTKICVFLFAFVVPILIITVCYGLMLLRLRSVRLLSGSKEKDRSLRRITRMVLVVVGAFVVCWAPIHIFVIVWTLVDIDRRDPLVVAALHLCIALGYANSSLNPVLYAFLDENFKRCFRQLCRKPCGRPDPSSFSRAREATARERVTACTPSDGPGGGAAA
Experimental: CHO-hδ cell membranes were purchased from Receptor Biology, Inc. (Baltimore, Md.). 10 mg/ml of membrane protein suspended in 10 mM TRIS-HC pH 7.2, 2 mM EDTA, 10% sucrose.
Membranes were maintained at 4-8° C. A portion (1 ml) of membranes was added into 15 mL cold binding assay buffer. The assay buffer contained 50 mM HEPES, pH 7.6, 5 mM MgCl2, 100 mM NaCl, 1 mM DTT and 1 mM EDTA. The membrane suspension was homogenized with a Polytron for 2 times and centrifuged at 3000 rpm for 10 min. The supernent was then centrifuged at 18,000 rpm for 20 min. The pellet was saved in a tube and 10 ml assay buffer was added into the tube. The pellet and buffer were mixed with a Polytron.
The pellet membranes (20 μg/ml) were preincubated with SPA (10 mg/ml) at 25° C. for 45 min in the assay buffer. The SPA (5 mg/ml) coupled with membranes (10 μg/ml) was then incubated with 0.5 nM [^35S]GTPγS in the same HEPES buffer containing 50 μM GDP in total volume of 200 μl. Increasing concentrations of receptor agonists were used to stimulate [^35S]GTPγS binding. The basal binding was tested in the absent agonists and no specific binding was tested in the present 10 μM unlabeled GTPγS. The data were analyzed on a Top counter.
Data The % of Basal=(stimulate−non specific)*100/(basal−non specific). EC50 values were calculated using a Prism program.

[2] = target: T2, human delta subtype 2 opioid receptor (Homo sapiens, UniProt P41143); test: Human Delta Opioid Receptor Binding Assay (CHO membranes, 3H-Naltrindole); settings: read-out: hKi δ
T2 construct: purchased Perkin Elmer RBHODM400UA; host or cells: Chinese Hamster Ovary cells (recombinant expression)
T2 sequence (P41143 whole entry): as above
Procedure, shortened: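 Filtration binding on CHO-cell membranes expressing the human receptor, in 50 mM Tris pH 7.5 with 5 mM MgCl2, 30 min at room temperature; 3H-naltrindole diluted to 6 nM before mixing 1:1 with compound. Nonspecific binding defined with 1 μM unlabelled naltrindole; inhibition relative to no-inhibitor wells.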

[3] = target: T3, mu opioid receptor (CHO-hMOR cell membranes) (Homo sapiens, UniProt P35372); test: Mu Opioid Receptor Functional Assay: [35S]GTPγS Binding in CHO-hMOR Cell Membranes, Versions 1 and 2; type: biochemical; settings: for MOR GTP binding assay_v1 (% I): version 1, % inhibition of agonist-stimulated GTPγS binding; for MOR GTP assay_v1 % of Basal: version 1, basal binding = 100%; for MOR GTP binding assay_v2 (% I): version 2, % inhibition of agonist-stimulated GTPγS binding; for EC50: version 2, read-out: MOR GTP binding assay v2 EC50
T3 construct: purchased Receptor Biology, Inc. (Baltimore, Md.); host or cells: CHO cells (recombinant expression)
T3 sequence (P35372 whole entry): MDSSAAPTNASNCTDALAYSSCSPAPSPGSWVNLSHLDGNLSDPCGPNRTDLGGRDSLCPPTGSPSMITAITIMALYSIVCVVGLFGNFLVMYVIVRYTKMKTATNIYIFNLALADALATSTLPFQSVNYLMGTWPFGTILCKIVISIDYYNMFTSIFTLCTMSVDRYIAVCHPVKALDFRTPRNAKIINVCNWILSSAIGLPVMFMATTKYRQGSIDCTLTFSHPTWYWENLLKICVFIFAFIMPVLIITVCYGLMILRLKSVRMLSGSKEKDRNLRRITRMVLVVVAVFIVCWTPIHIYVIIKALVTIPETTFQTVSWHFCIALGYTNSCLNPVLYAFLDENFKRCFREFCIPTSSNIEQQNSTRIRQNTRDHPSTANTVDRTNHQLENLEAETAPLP
Procedure, shortened: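 CHO-hMOR membranes (10 μg/ml) on WGA SPA beads, preincubated 45 min at 25 °C, then incubated with 0.5 nM [35S]GTPγS in HEPES pH 7.6, 5 mM MgCl2, 100 mM NaCl, 1 mM DTT, 1 mM EDTA. Non-specific binding with 10 μM unlabeled GTPγS; agonist EC50 from concentration-response, antagonism as inhibition of 1 μM SNC80-stimulated binding.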

delta opioid receptor = target: T4, delta opioid receptor (Rattus norvegicus, UniProt P33533); test: Rat Brain Delta Opioid Receptor Binding Assay ([3H]DPDPE); settings: rat forebrain membranes, margin of error 10-20%, read-out: r Ki δ
T4 construct: from tissue; host or cells: forebrain of male Wistar rats
T4 sequence (P33533 whole entry): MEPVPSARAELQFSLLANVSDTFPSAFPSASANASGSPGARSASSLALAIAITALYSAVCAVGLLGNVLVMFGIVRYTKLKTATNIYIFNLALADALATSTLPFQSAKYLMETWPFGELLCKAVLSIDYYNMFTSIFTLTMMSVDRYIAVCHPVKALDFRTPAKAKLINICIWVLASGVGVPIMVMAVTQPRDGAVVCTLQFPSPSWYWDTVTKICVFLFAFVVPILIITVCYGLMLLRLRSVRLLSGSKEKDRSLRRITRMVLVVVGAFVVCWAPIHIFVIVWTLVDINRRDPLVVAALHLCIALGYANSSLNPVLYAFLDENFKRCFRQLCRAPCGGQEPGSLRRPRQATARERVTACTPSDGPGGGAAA
Procedure, shortened: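 Rat (male Wistar) forebrain membranes in 50 mM Tris-HCl pH 7.4 with 5 mM MgCl2, incubated with ~4 nM [3H]DPDPE for 2.5 h at 25 °C. Bound ligand collected by filtration and scintillation counting. Single-concentration data given as % inhibition of specific binding; concentration series fitted to Ki.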

[4] = target: T5, delta opioid receptor (NG108-15 cell membranes) (Mus musculus, UniProt P32300); test: Delta Opioid Receptor Functional Assay: [35S]GTPγS Binding in NG108-15 Cell Membranes, Version 2; type: biochemical; settings: NG108-15 cell membranes, version 2; for EC50: [35S]GTPγS, read-out: DOR GTP-binding Assay_v2_ EC50; for DOR GTP-binding Assay v2 (% I): % inhibition of agonist-stimulated GTPγS binding
T5 construct: NG108-15 cell membranes were purchased from Applied Cell Sciences (Rockville, Md.); host or cells: NG108-15 cells (membranes purchased)
T5 sequence (P32300 whole entry): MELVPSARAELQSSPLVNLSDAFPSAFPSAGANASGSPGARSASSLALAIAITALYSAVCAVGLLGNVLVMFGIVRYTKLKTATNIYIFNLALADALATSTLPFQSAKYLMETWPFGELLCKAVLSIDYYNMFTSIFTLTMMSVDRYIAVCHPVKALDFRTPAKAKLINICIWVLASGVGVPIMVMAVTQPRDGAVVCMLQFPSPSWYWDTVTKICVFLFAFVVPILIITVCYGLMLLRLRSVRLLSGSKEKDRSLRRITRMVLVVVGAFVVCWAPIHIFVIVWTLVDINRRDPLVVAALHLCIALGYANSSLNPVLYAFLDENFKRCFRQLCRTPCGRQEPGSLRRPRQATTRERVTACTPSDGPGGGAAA
Experimental: NG108-15 cell membranes were purchased from Applied Cell Sciences (Rockville, Md.). 8 mg/ml of membrane protein suspended in 10 mM TRIS-HC pH 7.2, 2 mM EDTA, 10% sucrose.
Membranes were maintained at 4-8° C. A portion (1 ml) of membranes was added into 10 ml cold binding assay buffer. The assay buffer contained 50 mM Tris, pH 7.6, 5 mM MgCl2, 100 mM NaCl, 1 mM DTT and 1 mM EGTA. The membrane suspension was homogenized with a Polytron for 2 times and centrifuged at 3000 rpm for 10 min. The supernent was then centrifuged at 18,000 rpm for 20 min. The pellet was saved in a tube and 10 ml assay buffer was added into the tube. The pellet and buffer were mixed with a Polytron.
The pellet membranes (75 μg/ml) were preincubated with SPA (10 mg/ml) at 25° C. for 45 min in the assay buffer. The SPA (5 mg/ml) coupled with membranes (37.5 μg/ml) was then incubated with 0.1 nM [^35S] GTPγS in the same Tris buffer containing 100 μM GDP in total volume of 200 μl. Increasing concentrations of receptor agonists were used to stimulate [^35S] GTPγS binding. The basal binding was tested in the absent agonists and no specific binding was tested in the present 10 μM unlabeled GTPγS. The data were analyzed on a Top counter.
[formula] % Inhibition=(% stimulation by 1 μM SNC80−% stimulation by 1 μM SNC80 in presence of test compound)×100/(% Stimulation by 1 μM SNC80−100) % of Basal=(stimulate−non specific)*100/(basal−non specific). EC50 values were calculated using GraphPad Prism.

mu opioid receptor = target: T6, mu opioid receptor (Rattus norvegicus, UniProt P33535); test: Rat Brain Mu Opioid Receptor Binding Assay (and Version 2a, [3H]DAMGO); settings: rat forebrain membranes, margin of error 10-20%, read-out: r Ki μ
T6 construct: from tissue; host or cells: forebrain of male Wistar rats
T6 sequence (P33535 whole entry): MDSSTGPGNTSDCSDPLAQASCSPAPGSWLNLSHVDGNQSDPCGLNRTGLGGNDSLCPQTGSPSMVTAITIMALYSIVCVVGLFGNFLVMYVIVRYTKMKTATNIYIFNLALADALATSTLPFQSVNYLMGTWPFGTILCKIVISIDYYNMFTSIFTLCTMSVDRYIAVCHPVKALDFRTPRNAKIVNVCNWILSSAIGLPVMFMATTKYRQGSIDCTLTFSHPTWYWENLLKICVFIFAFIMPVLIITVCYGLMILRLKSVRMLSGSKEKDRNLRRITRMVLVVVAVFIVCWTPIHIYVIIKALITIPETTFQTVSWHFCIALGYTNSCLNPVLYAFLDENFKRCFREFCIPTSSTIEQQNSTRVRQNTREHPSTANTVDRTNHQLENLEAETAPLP
Procedure, shortened: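 Rat forebrain membranes from male Wistar rats in 50 mM Tris-HCl pH 7.4 with 5 mM MgCl2 incubated with 0.8 nM [3H]DAMGO for 2.5 h at 25° C., then filtered and counted. Data given as % inhibition of specific binding at single concentrations or as Ki from concentration series.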

human mu opioid receptor = target: T7, human mu opioid receptor (Homo sapiens, UniProt P35372); test: Human Mu Opioid Receptor Binding Assay (CHO membranes, 3H-Damgo); settings: read-out: hKi μ
T7 construct: purchased Perkin Elmer RBHOMM400UA; host or cells: Chinese Hamster Ovary cells (recombinant expression)
T7 sequence (P35372 whole entry): as the sequence (P35372 whole entry) above
Procedure, shortened: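 Membranes from CHO cells expressing human mu opioid receptor, 300 μg/mL, in 50 mM Tris pH 7.5, 5 mM MgCl2. Incubated with compound and ³H-Damgo (3.6 nM before mixing) for 2 h at room temperature, filtered, counted by scintillation. Nonspecific binding with 1 μM unlabelled Damgo.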

[5] = tested on: novel environment-stressed mice; test: In Vivo Assay-Stress-Induced Fecal Output (Fecal Output for 1 hr); design: species or system mouse; settings: 1 hr; for Fecal Output (# pellets) cpd: novel environment-stressed mice; for response vs control in vivo at 10 mg/kg / response vs control in vivo at 30 mg/kg: Mus musculus, po, 1 h
Procedure, shortened: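 Adult male Crl:CD-1(ICR) mice (˜30-35 g; at least 10 per dose group) were split into acclimated non-stressed controls, held individually for 16-18 hr in wire-mesh-bottom cages, and non-acclimated stressed groups. Mice were dosed intragastrically with vehicle or test compound in 0.5% methylcellulose, housed individually in novel cages over absorbent cardboard, and fecal pellets per mouse were counted hourly.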

SMILES | Ki (delta opioid receptor) | EC50 [4] | Ki (mu opioid receptor) | MOR GTP binding assay_v2 (% I) [3] | EC50 [3] | DOR GTP-binding Assay v2 (% I) [4] | Ki (human mu opioid receptor) | also measured
Cc1cc(O)cc(C)c1C[C@H](N)C(=O)N(Cc1nc(-c2ccsc2)c(C)[nH]1)C(C)C [Cpd 146] | – | – | – | – | – | – | – | EC50 [1]: 27 nM; Ki [2]: 71 nM; MOR GTP binding assay_v1 (% I) [3]: 2.79%; MOR GTP assay_v1 % of Basal [3]: 740.77%
COc1ccc(CN(C(=O)[C@@H](N)Cc2c(C)cc(C(N)=O)cc2C)[C@@H](C)c2nc(-c3ccccc3)c[nH]2)cc1C(=O)NC1CC1 [Cpd 300] | 0.29 nM | 32 nM | 0.09 nM | 15.40% | 2.6 nM | – | – | –
COc1ccc(CN(C(=O)[C@@H](N)Cc2c(C)cc(C(N)=O)cc2C)[C@@H](C)c2nc(-c3ccccc3)c[nH]2)cc1C(N)=O [Cpd 295] | 3.95 nM | 2.2 nM | 0.18 nM | 8.21% | 1.4 nM | 71.66% | – | –
COc1ccc(CN(C(=O)[C@@H](N)Cc2c(C)cc(C(N)=O)cc2C)[C@@H](C)c2nc(-c3ccccc3)c[nH]2)cc1C(=O)NCCO [Cpd 299] | 1.16 nM | 2.3 nM | 0.44 nM | 12.11% | 1 nM | – | – | –
C[C@@H](c1nc(-c2ccccc2)c[nH]1)N(Cc1cccc(-c2nnn[nH]2)c1)C(=O)[C@@H](N)Cc1ccc(C(N)=O)cc1 [Cpd 267] | 0.46 nM | 6 nM | 1.53 nM | – | – | 31.76% | 6.88 nM | –
COc1ccc(CN(C(=O)[C@@H](N)Cc2c(C)cc(C(N)=O)cc2C)[C@@H](C)c2nc(-c3ccccc3)c[nH]2)cc1C(=O)N1CCOCC1 [Cpd 296] | 2.2 nM | 7.9 nM | 0.49 nM | 9.35% | 2.2 nM | 69.41% | – | –
COc1ccc(CN(C(=O)[C@@H](N)Cc2c(C)cc(C(N)=O)cc2C)[C@@H](C)c2nc(-c3ccccc3C(=O)O)c[nH]2)cc1OC [Cpd 29] | 28 nM | > 10000 nM | 25 nM | – | – | 79.05% | 38 nM | –
Cc1cc(O)cc(C)c1C[C@H](N)C(=O)N(C)[C@@H](CC(C)C)c1nc(-c2ccccc2)c[nH]1 [Cpd 174] | – | – | – | – | – | – | – | EC50 [1]: 20 nM; MOR GTP binding assay_v1 (% I) [3]: 42.00%; MOR GTP assay_v1 % of Basal [3]: 864.00%
COc1cc(CN(C(=O)[C@@H](N)Cc2c(C)cc(C(N)=O)cc2C)[C@@H](C)c2nc(-c3ccccc3)c[nH]2)c(C(=O)O)cc1OC [Cpd 230] | 10 nM | 48.9 nM | 5 nM | – | – | – | – | –
COc1ccc(CN(C(=O)[C@@H](N)Cc2c(C)cc(C(N)=O)cc2C)[C@@H](C)c2nc(-c3ccc(Cl)cc3)c(C)[nH]2)cc1C(=O)O [Cpd 239] | 0.1 nM | > 10000 nM | 0.44 nM | – | – | – | – | –
Cc1cc(C(N)=O)cc(C)c1C[C@H](N)C(=O)N(Cc1ccccc1C(N)=O)[C@@H](C)c1nc(-c2ccccc2)c[nH]1 [Cpd 1] | 13.2 nM | 88 nM | 1.1 nM | – | – | 22.10% | 3.6 nM | –
COC(=O)c1cccc(CN(C(=O)[C@@H](N)Cc2c(C)cc(C(N)=O)cc2C)[C@@H](C)c2nc(-c3ccccc3)c[nH]2)c1 [Cpd 9] | 0.11 nM | 3.4 nM | 0.16 nM | – | – | 67.13% | 10.9 nM | –
Cc1cc(C(N)=O)cc(C)c1C[C@H](N)C(=O)N(C)[C@@H](C)c1nc(-c2ccccc2)c[nH]1 [Cpd 196] | – | – | – | – | – | – | – | EC50 [1]: 24 nM; Fecal Output (# pellets) cpd ([5]; 10 mg/kg oral): 9.2 pellets; Fecal Output (# pellets) cpd ([5]; 30 mg/kg oral): 4.3 pellets; response vs control in vivo at 10 mg/kg ([5]; 10 mg/kg oral, relative to acclimated control, read-out: Fecal Output cpd % control): 249%; response vs control in vivo at 10 mg/kg ([5]; 10 mg/kg oral, relative to novel environment stress (NES) vehicle group, read-out: Fecal Output cpd % NES): 65.7%; response vs control in vivo at 30 mg/kg ([5]; 30 mg/kg oral, relative to acclimated control, read-out: Fecal Output cpd % control): 391%; response vs control in vivo at 30 mg/kg ([5]; 30 mg/kg oral, relative to novel environment stress (NES) vehicle group, read-out: Fecal Output cpd % NES): 45.3%; MOR GTP binding assay_v1 (% I) [3]: 1.00%; MOR GTP assay_v1 % of Basal [3]: 620.00%
